Reference: patent US20190365698A1, “Use of Antineoplastic Agents to Stimulate the Immune System for Treatment of Cancer” (CRITITECH, INC., priority 2018, published 2019)
Values after ≈ are worked out from the molar mass of the structure shown. Values joined by “and” are separate entries in the source; they are usually repeats but may differ in a detail not shown here. Equal entries are not always repeated. Marks after values point to notes of the source that are not given here.

Key:
786-O cell line [1] = assay: Renal cell adenocarcinoma xenograft: histology and immunohistochemistry (viable carcinoma size, necrosis, lymphohistiocytic infiltrate); assay type: in vivo, Sprague-Dawley Rag2; Il2rg null (SRG) rat
Description: Microscopic Examination: Tissues fixed with 10% NBF were embedded in paraffin. Each tumor was cut into 2-3 pieces and embedded and sectioned together.

[2] = tested on: UM-UC-3 bladder cancer cell line; assay: Human bladder cancer (UM-UC-3) mouse xenograft study: tumor volume; assay type: in vivo, Hsd:Athymic Nude-Foxnlnu nude mice
Procedure: Tumor volume was determined with calipers. […] Animals were weighed 2×/week.
At day 18 after tumor implant, when average tumor size was between 50-325 mm^3, animals were sorted into five groups with equal average tumor sizes and were treated as shown in Table 25 below.
The second treatments (2nd cycle) occurred 7 days following first treatment (1st cycle) and third treatments (3rd cycle) occurred 14 days following the first treatment. The docetaxel solution IV was administered via the tail vein.
Vehicle (Control): Diluted 1 ml of the 1% Polysorbate 80/8% Ethanol in normal saline (0.9% Sodium Chloride for Injection) reconstitution solution with 1.5 mL of normal saline (0.9% Sodium Chloride for Injection, USP). […] Vigorously hand shook the vial with inversions for 1 minute. […] Allowed the suspension to sit undisturbed for at least 5 minutes to reduce entrapped air and foam. […] Vortexed to mix.

786-O cell line [3] = assay: Rat xenograft model of human renal cell adenocarcinoma: tumor volume; assay type: in vivo, Sprague-Dawley Rag2; Il2rg null (SRG) rat; details: IV docetaxel, 3 weekly cycles
[4] = tested on: UM-UC-3 bladder cancer cell line; assay: Bladder cancer xenograft study: histology and immunohistochemistry (viable carcinoma size, necrosis, macrophage infiltrate, TLS, necropsy volume)
Procedure: Tumors were implanted with 1×10^7 cells (1004, volume) into right flank (PBS 1:1 with matrigel: BD356234). Tumor volume was determined with calipers. Formula: V=(r length*r width*r height)*π*4/3. Animals were weighed 2×/week. Tumor volumes were determined every 3 to 4 days following tumor implant (total of ˜20 measurements) and on day of euthanasia. Photo images of tumors were obtained at 2, 3 and 4 weeks post implantation and on day of euthanasia. Animals were euthanized once the tumor reached a size of 3,000 mm^3 or up to the point of significant tumor ulceration. At the time of euthanasia, tumors were isolated and halved. […] The second half of the tumor was fixed in formalin. Two H&E stained slides/tumor were prepared (up to 4 tumor/group were processed).
Tumor tissue was fixed before H&E and IHC staining. Bladder tissue sections were deparaffinized and processed by standard H&E and IHC staining. At least four tumors per treatment group were processed.

[5] = Solubility of the active in the receptor fluid; assay type: physicochemical; details: not told, aqueous with cosolvent or surfactant or cyclodextrin; 96 wt % PBS at pH 7.4 and 4 wt % hydroxyl propyl beta cyclodextrin
Procedure: The receptor fluid was degassed by filtering the receptor fluid through a ZapCap CR 0.2 μm membrane while pulling vacuum. The filtered receptor fluid was stirred for an additional 20 minutes while maintaining vacuum to ensure complete degassing.

[6] = IV Docetaxel 3 cycles, 2 animals

For CC(=O)O[C@@]12CO[C@@H]1C[C@H](O)[C@@]1(C)C(=O)[C@H](O)C3=C(C)[C@@H](OC(=O)[C@H](O)[C@@H](NC(=O)OC(C)(C)C)c4ccccc4)C[C@@](O)([C@@H](OC(=O)c4ccccc4)[C@H]21)C3(C)C [Doce], the “Percentage of tissue showing necrosis: number of animals with 5-50%” value (786-O cell line [1]; IV Doce, 2 animals) was 2 and the “Lymphohistiocytic infiltrate density: number of animals graded Mild” value (786-O cell line [1]; IV Doce, 2 animals, H/E and CD11b staining) was 2.
With CC(=O)O[C@@]12CO[C@@H]1C[C@H](O)[C@@]1(C)C(=O)[C@H](O)C3=C(C)[C@@H](OC(=O)[C@H](O)[C@@H](NC(=O)OC(C)(C)C)c4ccccc4)C[C@@](O)([C@@H](OC(=O)c4ccccc4)[C@H]21)C3(C)C [Docetaxel, docetaxel] the “Tumor volume over time” value ([2]; Docetaxel IV 30 mg/kg, 3 weekly cycles, 61 days) was “decreased initially for dosages of nDoce IT 1 cycle and Docetaxel IV 3 cycles, but subsequently increased”, the “Effectiveness in relation to initial tumor size” value ([2]; Docetaxel IV 3 cycles) was “somewhat effective at treating small tumors, but not very effective in treating large tumors” and the “tumor growth vs vehicle control” value (786-O cell line [3]) was “partial tumor growth inhibition compared to vehicle control”. For the same compound, the “Histology overview (H&E) vs vehicle control” value (786-O cell line [1]; Docetaxel (IV) 3 cycles, FIG. 93) was “no difference”, the “morphologic and immunohistochemical appearance” value (786-O cell line [1]; IV docetaxel, two cases) was “identical morphologic and immunohistochemical appearance to that seen in the control and IT vehicle groups” and the “Size of residual viable carcinoma on slide: number of animals with >10 mm” value (786-O cell line [1]; IV docetaxel, 2 animals) was 2. The “residual viable carcinoma nodules, size” value (786-O cell line [1]; both IV docetaxel animals) was “greater than 10 mm”, the “Histological overview, general observations (H&E)” value ([4]; Docetaxel Solution IV 3 cycles) was “many viable appearing tumor masses with some macrophage and occasional lymphocytic response along with some tumor necrosis” and the “Immunohistochemistry overview, F4/80 stain” value ([4]; FIG. 87, IV Docetaxel 3 cycles) was “Very little tumor cell destruction and few scattered mononuclear immune cells among vast number of viable tumor cells”. For the same compound, the “# containing at least one TLS” value [4, 6] was 0, the “Maximum size of viable invasive carcinoma on the slide >10 mm (number of animals)” value [4, 6] was 2* and the “Percentage of tumor showing necrosis: number of animals with 11-50%” value [4, 6] was 1. The “Percentage of tumor showing necrosis: number of animals with 50-90%” value [4, 6] was 1, the “Macrophage infiltrate density Mild (number of animals)” value ([4]; IV Docetaxel 3 cycles, H&E and CD68) was 2 and the “Maximum tumor size on slide” value ([4]; IV Docetaxel 3 cycles, individual animals B1, B3) was 15 mm and 11 mm. The TLSs ([4]; IV docetaxel 3 cycles) was “There were no TLSs present”, the “tumor mass maximum dimension on the slide, individual cases” value ([4]; IV docetaxel 3 cycles) was 11 mm and 15 mm and the “geographic tumor cell necrosis, share of tumor area, individual cases” value ([4]; IV docetaxel 3 cycles, cases B1 and B3) was 11-50% and 50-90%.
In the case of CC(=O)O[C@H]1C(=O)[C@@]2(C)[C@H]([C@H](OC(=O)c3ccccc3)[C@]3(O)C[C@H](OC(=O)[C@H](O)[C@@H](NC(=O)c4ccccc4)c4ccccc4)C(C)=C1C3(C)C)[C@]1(OC(C)=O)CO[C@@H]1C[C@@H]2O [paclitaxel], the solubility [5] is reported as about 0.4 µg/mL (≈ 0.468 µM).
